Laboratory results: PMC6615261, “Repurposing Azithromycin and Rifampicin Against Gram-Negative Pathogens by Combination With Peptidomimetics” (Frontiers in Cellular and Infection Microbiology, 2019)
Read-outs that look alike come from different tables or passages of the source.

Legend:
[1] = tested on: NIH 3T3 and HepG2 cells; test: Effect on viability of mammalian cells (both cell lines); format: cell-based, mouse and human
Description: (§1) NIH 3T3 and HepG2 cells (both from ATCC, Manassas, VA, USA) were cultured in flat-bottomed 96-well MicroWell™ plates (NUNC, Roskilde, Denmark) at seeding densities of ~23,000 and ~22,000 cells/well, respectively, and then cultured for 22–24 h under standard culturing conditions (37°C, 5% CO2, humidified air) to reach 80–90% confluence. NIH 3T3 were cultured in Dulbecco's modified Eagle's medium (DMEM) supplemented with 10% (v/v) newborn-calf serum (NCS) (Gibco, Paisly, UK), while HepG2 were cultured in Eagle's minimum essential medium (EMEM) supplemented with 10% (v/v) fetal bovine serum (FBS, Gibco, Paisly, UK), sodium pyruvate (1 mM), and non-essential amino acids (1%, v/v). Both culturing media were further supplemented with penicillin (100 U/mL), streptomycin (100 μg/mL), and L-glutamine (2 mM).
(§2) Effect on cell viability was determined in NIH 3T3 fibroblasts and HepG2 hepatocytes by using the MTS/PMS assay measuring metabolic activity. Briefly, the adhered cells were washed with 37°C Hanks' balanced salt solution (HBSS from Sigma-Aldrich, St. Louis, MO, USA), containing 10 mM HEPES (AppliChem, Darmstadt, Germany), and adjusted to pH 7.4, and were then exposed for 1 h to 100 μL of test compound(s) dissolved in the appropriate culturing medium without serum for each cell line. After exposure the cells were washed with HBSS containing 10 mM HEPES (pH 7.4) and 100 μL of an MTS/PMS solution, consisting of 240 μg/mL MTS (Promega, Madison, WI, USA) and 2.4 μg/mL PMS (SigmaAldrich, Buchs, Switzerland) in HBSS, was added to the cells, which then were incubated for 1 h at 37°C with horizontal shaking under light protection. Absorbance was measured at 492 nm by using a POLARstar OPTIMA plate reader (BMG Labtech, Offenburg, Germany). The relative viability was calculated according to Equation (1) with absorbance values obtained after incubation of cells with test compound; incubation with SDS (0.2%, w/v in medium) defined 100% cell death (Abspos), while the absorbance of cells incubated with medium defined 0% cell death (Absneg).
(§3) (1) Relative viability(%)=(Abssample-Abspos)/(Absneg-Abspos)×100%
(§4) EC50 values were calculated by using GraphPad Prism 7 (GraphPad Software, La Jolla, CA, USA) via fitting of the relative cell viability to the concentration of the test compound by using Equation (2):
(§5) (2) Relative viability(%)= Top-Bottom/1+10^(LogIC50-Log[peptidomimetic]) ×Hill slope
With top and bottom representing the mean highest and lowest observed values, respectively. The Hill slope represents a factor for the steepness of the linear part of the curve. […] The selectivity index was calculated as the average effect on cell viability (EC50 values for HepG2 and NIH 3T3 cells) divided by the MIC.

[2] = MTS/PMS cell viability assay; format: cell-based; details: human, HepG2 hepatocytes, 1 h exposure, read-out: Cytotoxicity HepG2 EC50 ± SD
Description: as §1, §2, §3, §4, §5
(§6) With top and bottom representing the mean highest and lowest observed values, respectively. The Hill slope represents a factor for the steepness of the linear part of the curve. In order to prevent erroneous calculation, the top and bottom values were constrained to 100 and 0%, respectively. Data were collected from technical triplicates. The selectivity index was calculated as the average effect on cell viability (EC50 values for HepG2 and NIH 3T3 cells) divided by the MIC.

[3] = tested on: K. pneumoniae ST258; test: Screening of peptidomimetic-antibiotic combinations (growth / growth inhibition); format: cell-based, Klebsiella pneumoniae; set-up: key to Growth in combination with RIF / Growth in combination with AZM: Growth (+); growth inhibition (–); details: for Growth in combination with AZM: peptidomimetic 0.5 μM + azithromycin 1 μg/mL; for Growth in combination with RIF: peptidomimetic 0.5 μM + rifampicin 0.5 μg/mL
[4] = tested on: K. pneumoniae ST258; test: MIC by broth microdilution; format: cell-based, Klebsiella pneumoniae; details: for Selectivity Index (SI) K. pneumoniae ST258: average of EC50 (HepG2, NIH 3T3) divided by MIC; for MIC K. pneumoniae ST258: peptidomimetic alone
Description: (§7) Minimal inhibitory concentrations (MICs) of peptidomimetics, antibiotics and their combinations were determined by broth microdilution according to the Clinical Laboratory Standards Institute performance standards (Clinical and Laboratory Standards Institute, [2013]). […] Since rifampicin and azithromycin mainly are used to treat infections with Gram-positive pathogens only CLSI clinical breakpoints were available for such bacteria. […] Potentiation of additional antibiotics by peptidomimetics was determined by using commercial 96-well plates containing varied concentrations of standard antibiotics (COMPAN1F; Trek Diagnostic Systems Inc.). The peptidomimetics were added immediately prior to inoculation with pathogen, and then MICs were determined as above. The MICs of peptidomimetic/antibiotic combinations were determined according to the method above, and the concentration ratios were selected based upon checkerboard results with 2:1 and 1:4 ratio of peptidomimetic with rifampicin or azithromycin, respectively. Minimal bactericidal concentrations (MBCs) were determined by using growth-curve assay plates. MIC plates were prepared as above, and then the plates were incubated at 37°C with continuous shaking. Growth was recorded at 10 min intervals as optical density (OD) at 600 nm during 24 h. At 24 h, for wells without growth, a sample was diluted 10-fold in sterile saline (0.9% sodium chloride) and plated onto MHA, following CLSI guidelines (Clinical and Laboratory Standards Institute, [1999]).

[5] = tested on: P. aeruginosa ATCC 27853; test: MIC by broth microdilution; format: cell-based, Pseudomonas aeruginosa; details: peptidomimetic alone
Description: as §7

[6] = MTS/PMS cell viability assay; format: cell-based, mouse; details: mouse, NIH 3T3 fibroblasts, 1 h exposure, read-out: Cytotoxicity NIH 3T3 EC50 ± SD
Description: as §1, §2, §3, §4, §5, §6

[7] = tested on: E. coli ST131; test: MIC by broth microdilution; format: cell-based, Escherichia coli; details: peptidomimetic alone
Description: as §7

[8] = tested on: K. pneumoniae ST258; details: for Antibiotic MIC in combination (AZM): MIC of azithromycin combined with the labelled peptidomimetic; for Antibiotic MIC in combination (RIF): MIC of rifampicin combined with the labelled peptidomimetic; for Peptidomimetic MIC alone: checkerboard
Description: (§8) The potential synergistic effects in peptidomimetic-antibiotic combinations were assessed by using a two-dimensional checkerboard assay (Garcia, [2010]). Briefly, twofold dilutions of peptide and antibiotic were prepared in MBH II media along the X- and Y-axis, respectively, in 96-well plates. The inoculum was added to the plates, and subsequently these were incubated for 18–20 h. All steps for inoculum preparation and broth microdilution were in accordance with the CLSI guidelines (Clinical and Laboratory Standards Institute, [2013]). The fractional inhibitory concentration index (FICI) was calculated as [MICA(A+B)/MICA(alone)] + [MICB(A+B)/MICB(alone)], where MICA(A+B) represents the MIC of antibiotic (A) in combination with peptidomimetic (B), while MICB(A+B) represents the MIC of peptidomimetic (B) in combination with antibiotic (A). MICA(alone) and MICB(alone) represent the MIC of each compound individually. FICI values of ≤0.5 were interpreted as synergy.

[9] = tested on: E. coli ST131; details: for Antibiotic MIC in combination (AZM): MIC of azithromycin combined with the labelled peptidomimetic; for Antibiotic MIC in combination (RIF): MIC of rifampicin combined with the labelled peptidomimetic; for Peptidomimetic MIC alone: checkerboard
Description: as §8

[10] = tested on: P. aeruginosa ATCC 27853; details: for Antibiotic MIC in combination (RIF) / Peptidomimetic MIC alone / Peptidomimetic MIC in combination: P. aeruginosa ATCC 27853; for Antibiotic MIC in combination (RIF): MIC of rifampicin combined with the labelled peptidomimetic; for Peptidomimetic MIC alone: checkerboard; for Reduction of the MIC of azithromycin: P. aeruginosa, sub-MIC concentrations of peptidomimetic
Description: as §8

[11] = tested on: MDR E. coli ST131; test: Screening of peptidomimetic-antibiotic combinations (growth / growth inhibition); format: cell-based, Escherichia coli; set-up: key to Growth in combination with RIF / Growth in combination with AZM: Growth (+); growth inhibition (–); details: for Growth in combination with AZM: peptidomimetic 0.5 μM + azithromycin 1 μg/mL; for Growth in combination with RIF: peptidomimetic 0.5 μM + rifampicin 0.5 μg/mL
[12] = 0.5 μM peptidomimetic + 0.5 μg/mL rifampicin

Compound | EC50 [1] | EC50 at 1 h [2] | Growth in combination with AZM [3] | Growth in combination with RIF [3] | Selectivity Index (SI) K. pneumoniae ST258 [4] | MIC K. pneumoniae ST258 [4] | MIC P. aeruginosa ATCC 27853 [5] | EC50 at 1 h [6] | MIC E. coli ST131 [7] | Antibiotic MIC in combination (AZM) [8] | Antibiotic MIC in combination (RIF) [8] | Peptidomimetic MIC alone [8] | Peptidomimetic MIC in combination ([8]; combined with AZM) | Peptidomimetic MIC in combination ([8]; combined with RIF) | Antibiotic MIC in combination (AZM) [9] | Antibiotic MIC in combination (RIF) [9] | Peptidomimetic MIC alone [9] | Peptidomimetic MIC in combination ([9]; combined with AZM) | Peptidomimetic MIC in combination ([9]; combined with RIF) | Antibiotic MIC in combination (RIF) [10] | also measured
C[C@@H](c1ccccc1)N(CCC(N)=O)C(=O)[C@H](CCCCNC(=N)N)NC(=O)CCN(C(=O)[C@H](CCCCN)NC(=O)CCN(C(=O)[C@H](CCCCNC(=N)N)NC(=O)CCN(C(=O)[C@H](CCCCN)NC(=O)CCN(C(=O)[C@H](CCCCNC(=N)N)NC(=O)CCN(C(=O)[C@H](CCCCN)NC(=O)CNCCN)[C@@H](C)c1ccccc1)[C@@H](C)c1ccccc1)[C@@H](C)c1ccccc1)[C@@H](C)c1ccccc1)[C@@H](C)c1ccccc1 [Peptidomimetic 25, NDab-Lys-βNspe-hArg-βNspe)3-NH2] | 80 to 170 µM | 85 ± 3.06 µM | + | + | (16) | 8 µM | 8 µM | 167 ± 5.53 µM | 2 µM | 8 µg/mL | 0.06 µg/mL | 8 µM | 0.5 µM | 1 µM | 0.5 µg/mL | 0.5 µg/mL | 2 µM | 0.25 µM | 0.25 µM | 0.06 µg/mL | Peptidomimetic MIC alone [10]: 8 µM; Peptidomimetic MIC in combination ([10]; combined with AZM): 1 µM; Peptidomimetic MIC in combination ([10]; combined with RIF): 1 µM; Reduction of the MIC of azithromycin [10]: 32- to 512 fold; Growth in combination with AZM [11]: –; Growth in combination with RIF [11]: –
CC(=O)N[C@@H](CCCCN)C(=O)N(CCC(=O)N[C@@H](CCCCN)C(=O)N(CCC(=O)N[C@@H](CCCCN)C(=O)N(CCC(=O)N[C@@H](CCCCN)C(=O)N(CCC(=O)N[C@@H](CCCCN)C(=O)N(CCC(=O)N[C@@H](CCCCN)C(=O)N(CCC(=O)N[C@@H](CCCCN)C(=O)N(CCC(=O)N[C@@H](CCCCN)C(=O)N(CCC(N)=O)Cc1ccccc1)Cc1ccccc1)Cc1ccccc1)Cc1ccccc1)Cc1ccccc1)Cc1ccccc1)Cc1ccccc1)Cc1ccccc1 [Peptidomimetic 15, Ac-(Lys-βNPhe)8-NH2] | > 100 µM | 121.37 ± 0.06 µM | + | – | (5) | 32 µM | 1 µM | 217 ± 23.1 µM | 1 µM | 8 µg/mL | 0.5 µg/mL | 32 µM | 0.5 µM | 0.5 µM | 1 µg/mL | 0.5 µg/mL | 1 µM | 0.13 µM | 0.13 µM | 0.5 µg/mL | Screening result with rifampicin [3, 12]: inhibit growth; Peptidomimetic MIC alone [10]: 1 µM; Peptidomimetic MIC in combination ([10]; combined with AZM): 0.5 µM; Peptidomimetic MIC in combination ([10]; combined with RIF): 0.5 µM; Reduction of the MIC of azithromycin [10]: 32- to 512 fold; Screening result with rifampicin [11, 12]: inhibit growth; Growth in combination with AZM [11]: –; Growth in combination with RIF [11]: –
